Values of other authors as cited in EP0580641B1, “NEW THALIDOMIDE DERIVATIVES, METHOD OF MANUFACTURE AND USE THEREOF IN MEDICAMENTS” (Grünenthal GmbH, priority 1991, dated 1992).

Conditions: cited from Arch. Pharm. 321, 371 (1988)

**Q.** Which Wasserlöslichkeit does the source give for `O=C1CCC(N2C(=O)c3ccccc3C2=O)C(=O)N1` (stereo not shown) [Thalidomid, 3-Phthalimido-piperidin-2,6-dion] here?
**A.** 0,012 mg/ml
